The results in this text go back to US11168067B2, “Substituted quinazoline compound having blood-brain barrier penetration capability” (WEISHANG (SHANGHAI) BIO-PHARMACEUTICAL CO., LTD., priority 2016, dated 2021).

In data set [1] the test system is PC-9 tumor cell. In words: CellTiter-Glo (CTG) cell viability assay, PC-9 tumor cell growth inhibition. The conditions noted are these: Homo sapiens, PC-9, 72 h, read-out: PC-9 tumor cell growth inhibition IC50. (In general: ATP-based viability assays read luminescence as a measure of living cells.)
Experimental: Cell viability of tumor cells with EGFR-activated mutations (exon 19-deficient Exon 19 Del) protein was detected using CellTiter-Glo (CTG) assay; about 5000 cells were seeded in each blank 96-well plate, 16 hours later, add the proportionally diluted compound, equilibrated at room temperature for 72 hours after the addition of the drug for 30 minutes. 100 μl of CellTiter-Glo reagent was added to each well and the orbital shaker was mixed for 2 minutes to induce cell lysis. The plate was incubated at room temperature for 10 minutes to stabilize the luminescence signal. The TECAN Infinite M1000 Pro instrument records the luminescence signal.
A short description of data set [2]: Blood-brain barrier penetration (brain tissue to plasma concentration ratio). In kind it is in vivo. The conditions noted are these: rat, rats, four hours after dosing. The method, then:
To determine whether the compound was able to cross the blood-brain barrier (BBB), the rats were administered with the test compound. Four hours after dosing, rats were sacrificed, blood and brain tissue were collected and the concentration of the test compound was analyzed. Brain permeation is defined as the ratio of the concentration of the compound in the brain tissue to the concentration in the plasma. P-glycoprotein is the blood-brain barrier efflux protein, […].

The subject of data set [3] is PC-9-luc tumor cells. In words: Efficacy study on intracranial animal model (PC-9-luc). In kind it is in vivo. As to conditions: Iressa human equivalent dose, 8 mice per group. From the text:
The injection was slowly preceded over a one-minute period. Upon completing injection, the needle was retained for another minute. After the needle removal, the hole was sealed with bone wax and the incision was closed. The tumor growth was monitored by image analysis. On Day 10, mice were randomized into 5 groups (8 mice per group) and start the treatments for three weeks.
The tumor growth was monitored by bioiluminense intensity. […] The survival benefits (no death or bodyweight loss less than 18%) treatment with compound X disclosed in table 3.

Data set [4] has as its target P-glycoprotein (Homo sapiens, UniProt P08183). Put plainly: P-glycoprotein efflux substrate. It is filed as in vitro ADME.

Structures are written as SMILES. pIC50: −log10 of the molar value.

The pIC50 is the IC50 on a negative log10 scale, so that one unit is a factor of ten. The term Kp denotes tissue or fluid exposure divided by exposure in the circulation.

P-glycoprotein, sequence (P08183 whole entry): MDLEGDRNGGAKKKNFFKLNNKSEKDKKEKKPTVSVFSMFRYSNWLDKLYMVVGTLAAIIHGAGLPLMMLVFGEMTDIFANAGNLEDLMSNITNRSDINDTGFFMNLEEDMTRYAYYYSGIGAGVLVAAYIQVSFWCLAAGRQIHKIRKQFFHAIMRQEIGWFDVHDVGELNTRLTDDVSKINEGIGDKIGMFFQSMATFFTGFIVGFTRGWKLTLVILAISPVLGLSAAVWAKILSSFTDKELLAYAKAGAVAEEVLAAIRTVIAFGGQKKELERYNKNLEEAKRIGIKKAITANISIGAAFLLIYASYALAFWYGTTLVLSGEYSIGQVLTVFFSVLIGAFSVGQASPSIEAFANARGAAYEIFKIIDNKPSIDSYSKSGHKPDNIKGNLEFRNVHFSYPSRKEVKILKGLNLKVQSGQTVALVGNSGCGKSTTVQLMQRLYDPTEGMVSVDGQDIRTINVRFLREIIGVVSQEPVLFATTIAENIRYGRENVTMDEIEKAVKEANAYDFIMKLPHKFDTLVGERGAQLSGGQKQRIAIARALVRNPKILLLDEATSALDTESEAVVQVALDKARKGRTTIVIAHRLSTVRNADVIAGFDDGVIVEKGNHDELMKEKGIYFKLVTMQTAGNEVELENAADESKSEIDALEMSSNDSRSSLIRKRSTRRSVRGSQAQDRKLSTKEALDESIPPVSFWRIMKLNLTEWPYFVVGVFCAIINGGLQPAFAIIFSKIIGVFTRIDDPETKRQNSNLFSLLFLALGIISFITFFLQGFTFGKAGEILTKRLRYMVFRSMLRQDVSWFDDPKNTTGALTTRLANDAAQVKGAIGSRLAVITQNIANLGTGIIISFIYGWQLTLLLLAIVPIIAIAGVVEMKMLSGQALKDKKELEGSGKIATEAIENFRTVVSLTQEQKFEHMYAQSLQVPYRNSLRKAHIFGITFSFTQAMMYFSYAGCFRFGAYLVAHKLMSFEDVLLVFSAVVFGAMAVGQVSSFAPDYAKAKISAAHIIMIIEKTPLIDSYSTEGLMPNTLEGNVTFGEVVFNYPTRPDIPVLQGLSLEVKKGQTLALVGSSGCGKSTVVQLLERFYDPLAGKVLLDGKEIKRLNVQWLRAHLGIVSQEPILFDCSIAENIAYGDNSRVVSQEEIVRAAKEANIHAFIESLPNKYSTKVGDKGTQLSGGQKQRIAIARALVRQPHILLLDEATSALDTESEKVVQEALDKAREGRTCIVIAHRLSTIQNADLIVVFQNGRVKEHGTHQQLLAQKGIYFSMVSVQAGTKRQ

For `COc1cc2ncnc(Nc3ccc(F)c(Cl)c3F)c2cc1O[C@H]1CCN(C2COC2)CC1(F)F` [Compound 25, (S)—N-(3-chloro-2,4-difluorophenyl)-6-((3,3-difluoro-1-(oxetan-3-yl)piperidin-4-yl)oxy)-7-methoxyquinazolin-4-amine], the negative logarithm of the IC50 (pIC50) in data set [1] is greater than 9.00. Moreover, in data set [2], the concentration ratio (Kp) at 4 h was greater than 0.3.
The matching figures for `[2H]C([2H])([2H])Oc1cc2ncnc(Nc3ccc(F)c(Cl)c3F)c2cc1O[C@@H]1CCN(C2COC2)CC1(F)F` [Compound 27, (R)—N-(3-chloro-2,4-difluorophenyl)-6-((3,3-difluoro-1-(oxetan-3-yl)piperidin-4-yl)oxy)-7-(methoxy-d3)quinazolin-4-amine]: greater than 9.00 and greater than 0.3.
For `[2H]C([2H])([2H])Oc1cc2ncnc(Nc3ccc(F)c(Cl)c3F)c2cc1O[C@H]1CCN(C2COC2)CC1(F)F` [Compound 29, (S)—N-(3-chloro-2,4-difluorophenyl)-6-((3,3-difluoro-1-(oxetan-3-yl)piperidin-4-yl)oxy)-7-(methoxy-d3)quinazolin-4-amine] the same measures were greater than 9.00 and greater than 0.3.
For `COc1cc2ncnc(Nc3ccc(F)c(Cl)c3)c2cc1OCCCN1CCOCC1` [Iressa, gefitinib], the “survival (no death or bodyweight loss less than 18%), mice at D 20” value in data set [3] (D 20 post tumor implantation) stood at 8. Moreover, in data set [3] (D 24 post tumor implantation), the “survival, mice at D 24” value is given as 7. In data set [3] (D 27 post tumor implantation), the “survival, mice at D 27” value was 7. In addition, in data set [3] (D 28 post tumor implantation), the “survival, mice at D 28” value turned out to be 7. For the same molecule, in data set [3] (D 30 post tumor implantation), the “survival, mice at D 30” value is listed as 7. The “survival, mice at D 31” value in data set [3] (D 31 post tumor implantation) worked out at 4. In addition, in data set [2], the Kp at 4 h is less than 0.05. Also, the P-glycoprotein efflux substrate entry in data set [4] is reported as “yes”.
